Measurements published in patent US20230241014A1, “MEK-INHIBITORS FOR THE TREATMENT OR PREVENTION OF CORONAVIRUS INFECTIONS AND/OR COVID-19 CYTOKINE STORM” (priority 2020, published 2023).
Where two headings read alike, the source gives them in different places.

What was measured:
[1] = tested on: LPS induced PMBC cells; test: LPS induced cytokine expression in PBMC; assay type: cell-based, human; conditions: 10 μg/ml
Description: In order to check what concentration of ATR-002 would be necessary for cytokine reduction, the amounts of IP10, TNF-alpha and MCP-1 expression was studied in LPS induced PMBC cells after ATR-002 treatment.

[2] = tested on: peripheral blood mononuclear cells (PBMC's); test: T-Cell Inflammation Inhibition Assay (ConA Stimulation); assay type: cell-based, human; conditions: ATR-002 100, 50, 25 μM, Dexamethasone 100 nM, 24 h
[3] = tested on: MCP-1; test: MCP-1 in SARS-CoV-2 infected CaCo2 cells; assay type: cell-based, Homo sapiens; conditions: high amount necessary
[4] = tested on: SARS-CoV-2 (FI); assay type: cell-based; conditions: primary human ALI cultures, MOI 1.0, 50 μM and 100 μM, three cultures
[5] = tested on: SARS-CoV-2 (FI); assay type: cell-based
[6] = tested on: pERK1/2; test: Wes analysis of ERK phosphorylation in SARS-CoV-2 infected Caco-2 cells; assay type: cell-based, Homo sapiens; conditions: CaCo-2 cells infected SARS-CoV-2 (MOI 0.1); 0.098-100 μM, 24 h
Method: For the Virus yield reduction assay a 24-well plate (Greiner Bio-One, Cat. 662-160) with 95% confluent Caco-2 cells was prepared. The wells were washed once with Caco-2 infection medium DMEM (Gibco, Cat. 41965-039) supplemented with 5% FCS (Capricorn, Cat. FBS-12A), 1% Penicillin/Streptomycin, (Sigma Aldrich, Cat. P4333) and 1% Non-essential amino acids (NEAA) (Merck, Cat. K 0293). Cells were infected with SARS-CoV-2 (MOI 0.1) for 1 h in 200 μL Caco-2 infection medium per well. Afterwards the Virus inoculum was removed completely and cells were treated with 1 mL per well with different concentrations of ATR-002 (100 μM, 50 μM, 25 μM, 12.5 μM, 6.25 μM, 3.125 μM, 1.56 μM, 0.78 μM, 0.39 μM, 0.195 μM, 0.098 μM, 0 μM) in Caco-2 infection medium with 1% DMSO for 24 h at 37° C., 5% CO2. […]
Wes™ capillary electrophoresis by ProteinSimple® was used to identify and quantify pERK1/2, ERK1/2 and SARS-CoV-2 Nucleoprotein. Cell lysates were diluted with 0.1×Sample Buffer (ProteinSimple, Abingdon, Oxford, UK) to approximately 50 ng total protein per lane and analyzed using specific antibodies. […] The anti-rabbit secondary antibody (ProteinSimple, Cat. DM-001) and anti-mouse secondary antibody (ProteinSimple, Cat. DM-002) and all other reagents for WES analysis were also purchased from ProteinSimple and were ready to use.

[7] = human, in vivo
Method: Specifically, as described previously, in Phase I clinical studies PD-0184264 was administered with a starting dose of 100 mg and up to three escalation steps in seven arms, following a single ascending dose/multiple ascending dose (SAD/MAD) regime. Administration scheme was one dose PD-0184264, escalating 100 mg to 900 mg (SAD), followed by seven doses PD-0184264, escalating 100 mg to 600 mg QD over seven days (MAD).

[8] = tested on: SARS-CoV-2 strain FI; test: Plaque assay, infection of Vero cells with SARS-CoV-2 upon MEK inhibition; assay type: cell-based; conditions: MOI 0.01, 50 μM, 24 h, 36 h and 48 h
Method: To determine the virus titer a standard plaque assay was performed. Vero cells were infected with SARS-CoV-2 strain FI (MOI 0.01). 1 hour post infection, the cells were treated with 50 μM ATR-002 or the respective amount of DMSO as a control. The compounds were present in the culture medium during the complete infection time. After 24, 36 and 48 hpi, supernatants were collected and virus titers quantified by plaque assay below.
Vero E6 cells were seeded at 100% confluency in 6-well plates (Greiner Bio-One, Cat. 657-160). 6-fold dilutions of virus samples were prepared in Vero E6 infection medium (IMDM, Gibco, Cat. 12440-053) supplemented with 5% FCS (Capricorn, Cat. FBS-12A) and 1% Penicillin/Streptomycin (Sigma Aldrich Cat. P4333). The cells were washed once with Vero E6 infection medium before infection with 1 mL per well of the virus dilutions for 1 h at 37° C., 5% CO2. […] The virus titer was calculated based on the number of plaques per well and the respective dilution factor.

## O=C(O)c1ccc(F)c(F)c1Nc1ccc(I)cc1Cl [ATR-002, 2-(2-chloro-4-iodophenylamino)-N-3,4-difluoro benzoic acid]
[1]; LPS induced PBMC
  IP10 expression: reduced
  TNF-alpha expression: reduced
[1]; PBMC, human PBMCs, read-out: inhibition of LPS induced MCP-1
  inhibition at 10 µg/mL: > 90%
[2]
  inhibition of cytokine/chemokine stimulation (summary): significant, dose dependent inhibition
[3]
  MCP-1 expression: able to reduce MCP-1 expression
[4]
  production of progeny viral particles: completely blocked the production of progeny viral particles
[5]; A549-ACE2/TMPRSS2, MOI 0.001, 100 μM
  production of progeny viral particles: reduced the production of progeny viral particles
[5]; A549-ACE2/TMPRSS2, MOI 0.01, 100 μM
  production of progeny viral particles: did not affect the production of progeny viral particles
[5]; Calu-3, MOI 0.001, 100 μM
  production of progeny viral particles: reduced the production of progeny viral particles
[6]
  inhibition of ERK (phosphorylation): seen at concentrations of 50 and 100 μM
[7]
  pharmacokinetic profile: supports the intended once-daily regime
  pharmacokinetics exposure, blood levels: maintenance of clinically relevant blood levels
  safety of each dose cohort (Safety Review Committee): considered to be safe
[8]
  viral load (plaque assay): lower viral load than control cells
